Data on 1 substance can be found in patent publication US12268770B2, “Use of cell membrane-bound signaling factors” (AiVita Biomedical, Inc., priority 2017, dated 2025).

This assay deals with plucked human hair follicles. The assay can be described thus: ex vivo culture of plucked human hair. The format is cell-based. The settings on record: 0.25 mM; 5 days of exposure; no other growth factors. How it is done:
Plucked human hair with evident presence of the bulb area were immersed immediately after collection in cell growth media. Some of the hair samples were exposed to with lipid-modified protein/MBCD complexes (loaded MBCD) from embryonic stem cell culture as described in Example 2 (referred to as active ingredient), or unloaded MBCD as control, at the same concentration of 0.25 mM of the cyclodextrin component. No other growth factors (e.g., EGF, KGF, etc) were used in the hair follicle cultures.

For methyl-β-cyclodextrin [unloaded MBCD], the “status of follicles in culture” value was “underwent senescence and detached from the substrate”.
